Structures can show the parent of a compound that is named as a salt. Where two headings read alike, the source gives them in different places.
What was measured:
Assay type in all cases: cell-based
hSTING-wt = hSTING-wt (Homo sapiens, UniProt Q86WV6); assay: Cellular Functional Assay I: ISRE-SEAP reporter in HEK-293T-Dual Null cells transfected with hSTING-wt; details: HEK-293T-Dual Null, hSTING-wt
mSTING-wt = molecular target: T1, mSTING-wt (Mus musculus, UniProt Q3TBT3); assay: Cellular Functional Assay I: ISRE-SEAP reporter in HEK-293T-Dual Null cells transfected with mouse STING; details: SEAP reporter, HEK-293T-Dual Null, mSTING-wt; read-out: EC50 mSTING-wt
T1 sequence (Q3TBT3 1-378): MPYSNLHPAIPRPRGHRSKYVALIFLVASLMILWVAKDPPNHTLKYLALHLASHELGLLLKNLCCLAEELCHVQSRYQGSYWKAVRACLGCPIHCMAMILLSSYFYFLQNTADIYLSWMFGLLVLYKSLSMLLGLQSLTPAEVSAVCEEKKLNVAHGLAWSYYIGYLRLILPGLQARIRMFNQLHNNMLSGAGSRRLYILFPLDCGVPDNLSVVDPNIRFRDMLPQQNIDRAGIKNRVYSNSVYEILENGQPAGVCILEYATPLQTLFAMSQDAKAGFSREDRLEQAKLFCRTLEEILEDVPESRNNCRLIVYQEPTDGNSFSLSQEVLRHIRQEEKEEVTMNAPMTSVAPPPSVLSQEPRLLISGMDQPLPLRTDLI

human PBMCs = assay: Cellular Functional Assay III: IFN-β production from human PBMCs; details: PBMC
Procedure: Frozen human PBMCs (BioIVT Inc.) were thawed first in a 37° C. water bath, then washed with RPMI/10% FBS/2 mM EDTA medium twice before establishing a viable cell count by Trypan Blue. The final cell density for each donor was 5×10^6 cells per well with RPMI/10% FBS medium in a 96 well u-bottom plate.
Human PBMCs were then incubated with testing compounds with indicated concentrations and control for 4 hours at 37° C. in cell culture incubator. After incubation, supernatant was collected and used for measuring induced cytokine level by cytometric bead array analysis.

hSTING-Q = molecular target: T2, hSTING-Q (Homo sapiens, UniProt Q86WV6, R293Q); assay: Cellular Functional Assay I: ISRE-SEAP reporter, hSTING-Q allele
T2 construct: expressed in transfected cells

hSTING-HAQ = hSTING-HAQ (Homo sapiens, UniProt Q86WV6, G230A/H232R/R293Q/R71H); assay: Cellular Functional Assay I: ISRE-SEAP reporter in HEK-293T-Dual Null cells transfected with hSTING-HAQ; details: HEK-293T-Dual Null, hSTING-HAQ
hSTING-AQ = molecular target: T3, hSTING-AQ (Homo sapiens, UniProt Q86WV6, G230A/R293Q); assay: Cellular Functional Assay I: ISRE-SEAP reporter, hSTING-AQ allele
T3 construct: expressed in transfected cells

hSTING-H232 = hSTING-H232 (Homo sapiens, UniProt Q86WV6); assay: Cellular Functional Assay I: ISRE-SEAP reporter in HEK-293T-Dual Null cells transfected with hSTING-H232; details: HEK-293T-Dual Null, hSTING-H232
[1] = test system: mouse dendritic cells (m-DCs); assay: Cellular Functional Assay II: secreted IFN-β from mouse dendritic cells; details: m-DC
Procedure: (§1) Activation of STING in primary cells was determined by measuring levels of secreted IFN-β from human monocyte-derived macrophages (h-MDMs)/dendritic cells (h-DCs) and/or mouse dendritic cells (m-DCs) after treatment with A.
(§2) Human CD14+ cells were first isolated from human peripheral blood mononuclear cells (PBMCs) with Stemcell Easysep Monocyte Isolation™ kit. Human CD14+ cells were kept in conditioned media for 7-12 days to generate h-MDMs and h-DCs before use. After harvesting from C57BL/6 mouse femurs, bone marrow cells were culture in conditioned media for 7 days to generate m-DCs before use.
(§3) The Culture conditions for the various types of cells whereas noted in Table 2:
(§4) 0.5×10^6 cells in 50 ul buffer (50 mM HEPES, pH7.0; 100 mM KCl; 3 mM MgCl2, 0.1 mM DTT; 85 mM Sucrose; 0.2% BSA, 1 mM ATP) in 96-well round bottom plate. Compound (formulated in DMSO) or DMSO (control) were added into each well and the plate incubate at 37° C. for 30 minutes. Cells were washed twice with 100 uL of fresh media and incubated at 37° C. for an additional 6 hours. After 6 hour of incubation, the supernatant was collected and a Cytometry Bead Assay™ (CBA, BioLegend) was used to measure […] levels.

[2] = test system: human dendritic cells (h-DCs); assay: Cellular Functional Assay II: secreted IFN-β from human dendritic cells; details: h-DC
Procedure: as §1, §2, §3, §4

[3] = test system: human monocyte-derived macrophages (h-MDMs); assay: Cellular Functional Assay II: secreted IFN-β from human monocyte-derived macrophages; details: h-MDM
Procedure: as §1, §2, §3, §4

[4] = Donor 1, 4 hours, read-out: Potency (IFN-β production) in Human PBMCs (EC50s) Donor 1
[5] = Donor 2, 4 hours, read-out: Potency (IFN-β production) in Human PBMCs (EC50s) Donor 2
[6] = Donor 3, 4 hours, read-out: Potency (IFN-β production) in Human PBMCs (EC50s) Donor 3
[7] = Donor 4, 4 hours, read-out: Potency (IFN-β production) in Human PBMCs (EC50s) Donor 4

Chain of hSTING-H232 (Q86WV6 whole entry): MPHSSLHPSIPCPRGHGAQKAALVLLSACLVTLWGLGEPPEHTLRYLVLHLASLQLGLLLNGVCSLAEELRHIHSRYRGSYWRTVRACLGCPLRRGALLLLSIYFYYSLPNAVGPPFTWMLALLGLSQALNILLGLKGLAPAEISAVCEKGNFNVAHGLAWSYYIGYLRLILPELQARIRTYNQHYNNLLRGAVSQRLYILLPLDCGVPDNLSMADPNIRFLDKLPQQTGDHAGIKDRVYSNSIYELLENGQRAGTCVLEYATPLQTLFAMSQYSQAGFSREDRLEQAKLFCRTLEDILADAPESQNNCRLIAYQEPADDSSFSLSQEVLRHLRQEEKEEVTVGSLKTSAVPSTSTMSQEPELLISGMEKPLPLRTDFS
Chain of hSTING-HAQ (Q86WV6 whole entry R71H/G230A/H232R/R293Q): as the sequence (Q86WV6 whole entry) above, with R71H, G230A, H232R, R293Q counted along it
Chain of hSTING-wt (Q86WV6 whole entry H232R): as the sequence (Q86WV6 whole entry) above, with H232R counted along it
T2 sequence (Q86WV6 whole entry R293Q): as the sequence (Q86WV6 whole entry) above, with R293Q counted along it
T3 sequence (Q86WV6 whole entry G230A/H232R/R293Q): as the sequence (Q86WV6 whole entry) above, with G230A, H232R, R293Q counted along it

Row | EC50 (hSTING-wt) [nM] | EC50 (mSTING-wt) [nM] | EC50 (hSTING-Q) [nM] | EC50 (hSTING-HAQ) [nM] | EC50 (hSTING-AQ) [nM] | EC50 (hSTING-H232) [nM] | Structure (SMILES) | EC50 (human PBMCs; [4]) [nM] | EC50 (human PBMCs; [5]) [nM] | EC50 (human PBMCs; [6]) [nM] | EC50 (human PBMCs; [7]) [nM] | IFN-β level ([1]; 0.1 uM) [pg/mL] | IFN-β level ([1]; 1 uM) | IFN-β level ([1]; 10 uM) | IFN-β level ([2]; 0.1 uM) | IFN-β level ([2]; 10 uM) | IFN-β level ([3]; 0.1 uM) | IFN-β level ([3]; 1 uM) | IFN-β level ([3]; 10 uM)
1 | < 1 | < 1 | 1 to 500 | 1 to 500 | 1 to 500 | < 1 | CCn1nc(C)cc1C(=O)Nc1nc2cc(C(N)=O)cnc2n1C/C=C/Cn1c(NC(=O)c2cc(C)nn2CC)nc2cc(C(N)=O)cc(OC)c21 [Compound A, 3-[(E)-4-[5-carbamoyl-2-[(2-ethyl-5-methyl-pyrazole-3-carbonyl)amino]-7-methoxy-benzimidazol-1-yl]but-2-enyl]-2-[(2-ethyl-5-methyl-pyrazole-3-carbonyl)amino]imidazo[4,5-b]pyridine-6-carboxamide] | – | – | – | – | >100 | >10,000 pg/ml | >50,000 pg/ml | >5,000 pg/ml | >15,000 pg/ml | >1,000 pg/ml | >1,000 pg/ml | >1,000 pg/ml
2 | < 1 | 1 to 500 | 1 to 500 | > 500 | > 500 | < 1 | CCn1nc(C)cc1C(=O)Nc1nc2cc(C(N)=O)sc2n1C/C=C/Cn1c(NC(=O)c2cc(C)nn2CC)nc2cc(C(N)=O)cc(OCCOC(F)F)c21 [Compound N, 3-[(E)-4-[5-carbamoyl-7-[2-(difluoromethoxy)ethoxy]-2-[(2-ethyl-5-methyl-pyrazole-3-carbonyl)amino]benzimidazol-1-yl]but-2-enyl]-2-[(2-ethyl-5-methyl-pyrazole-3-carbonyl)amino]thieno[2,3-d]imidazole-5-carboxamide Tetrahydrochloride] | – | – | – | – | – | – | – | – | – | – | – | –
3 | 1 to 500 | 1 to 500 | 1 to 500 | 1 to 500 | 1 to 500 | 1 to 500 | CCn1nc(C)cc1C(=O)Nc1nc2cc(C(N)=O)cnc2n1C/C=C/Cn1c(NC(=O)c2cc(C)nn2CC)nc2cc(C(N)=O)cc(OCCCNC)c21 [Compound S, 3-[(E)-4-[5-carbamoyl-2-[(2-ethyl-5-methyl-pyrazole-3-carbonyl)amino]-7-[3-(methylamino)propoxy]benzimidazol-1-yl]but-2-enyl]-2-[(2-ethyl-5-methyl-pyrazole-3-carbonyl)amino]imidazo[4,5-b]pyridine-6-carboxamide] | – | – | – | – | – | – | – | – | – | – | – | –

Second part, the molecule before the results:

Row | Structure (SMILES) | EC50 (hSTING-wt) [nM] | EC50 (mSTING-wt) [nM] | EC50 (hSTING-Q) [nM] | EC50 (hSTING-HAQ) [nM] | EC50 (hSTING-AQ) [nM] | EC50 (hSTING-H232) [nM] | EC50 (human PBMCs; [4]) [nM] | EC50 (human PBMCs; [5]) [nM] | EC50 (human PBMCs; [6]) [nM] | EC50 (human PBMCs; [7]) [nM] | IFN-β level ([1]; 0.1 uM) [pg/mL] | IFN-β level ([1]; 1 uM) | IFN-β level ([1]; 10 uM) | IFN-β level ([2]; 0.1 uM) | IFN-β level ([2]; 10 uM) | IFN-β level ([3]; 0.1 uM) | IFN-β level ([3]; 1 uM) | IFN-β level ([3]; 10 uM)
4 | [2H]C1([2H])OC([2H])([2H])C([2H])([2H])N(CCCOc2cc(C(N)=O)cc3nc(NC(=O)c4cc(C)nn4CC)n(C/C=C/Cn4c(NC(=O)c5cc(C)nn5CC)nc5cc(C(N)=O)cnc54)c23)C1([2H])[2H] [Compound W, 3-[(E)-4-[5-carbamoyl-2-[(2-ethyl-5-methyl-pyrazole-3-carbonyl)amino]-7-[3-(2,2,3,3,5,5,6,6-octadeuteriomorpholin-4-yl)propoxy]benzimidazol-1-yl]but-2-enyl]-2-[(2-ethyl-5-methyl-pyrazole-3-carbonyl)amino]imidazo[4,5-b]pyridine-6-carboxamide] | 1 to 500 | 1 to 500 | 1 to 500 | 1 to 500 | 1 to 500 | 1 to 500 | 100 to 500 | 100 to 500 | < 100 | 100 to 500 | – | – | – | – | – | – | – | –
5 | CCn1nc(C)cc1C(=O)Nc1nc2cc(C(N)=O)cnc2n1C/C=C/Cn1c(NC(=O)c2cc(C)nn2CC)nc2cc(C(N)=O)cc(OCCCN3CCOCC3)c21 [Compound T, 3-[(E)-4-[5-carbamoyl-2-[(2-ethyl-5-methyl-pyrazole-3-carbonyl)amino]-7-(3-morpholinopropoxy)benzimidazol-1-yl]but-2-enyl]-2-[(2-ethyl-5-methyl-pyrazole-3-carbonyl)amino]imidazo[4,5-b]pyridine-6-carboxamide] | 1 to 500 | 1 to 500 | 1 to 500 | 1 to 500 | 1 to 500 | 1 to 500 | 100 to 500 | < 100 | < 100 | 100 to 500 | – | – | – | – | – | – | – | –
6 | CCn1nc(C)cc1C(=O)Nc1nc2cc(C(N)=O)cnc2n1C/C=C/Cn1c(NC(=O)c2cc(C)nn2CC)nc2cc(C(N)=O)cc(OCCCN3CCC[C@H]3COC(F)F)c21 [Compound Y, 3-[(E)-4-[5-carbamoyl-7-[3-[(2S)-2-(difluoromethoxymethyl)pyrrolidin-1-yl]propoxy]-2-[(2-ethyl-5-methyl-pyrazole-3-carbonyl)amino]benzimidazol-1-yl]but-2-enyl]-2-[(2-ethyl-5-methyl-pyrazole-3-carbonyl)amino]imidazo[4,5-b]pyridine-6-carboxamide] | < 1 | 1 to 500 | 1 to 500 | 1 to 500 | 1 to 500 | < 1 | < 100 | < 100 | < 100 | < 100 | – | – | – | – | – | – | – | –
7 | CCn1nc(C)cc1C(=O)Nc1nc2cc(C(N)=O)cnc2n1C/C=C/Cn1c(NC(=O)c2cc(C)nn2CC)nc2cc(C(N)=O)cc(OCCCN3CCN(C(C)=O)CC3)c21 [Compound X, 3-[(E)-4-[7-[3-(4-acetylpiperazin-1-yl)propoxy]-5-carbamoyl-2-[(2-ethyl-5-methyl-pyrazole-3-carbonyl)amino]benzimidazol-1-yl]but-2-enyl]-2-[(2-ethyl-5-methyl-pyrazole-3-carbonyl)amino]imidazo[4,5-b]pyridine-6-carboxamide] | 1 to 500 | 1 to 500 | 1 to 500 | 1 to 500 | 1 to 500 | 1 to 500 | 100 to 500 | 100 to 500 | 100 to 500 | 100 to 500 | – | – | – | – | – | – | – | –
8 | Nc1nc2c(ncn2[C@@H]2O[C@@H]3COP(=O)(O)O[C@H]4[C@@H](O)[C@H](n5cnc6c(N)ncnc65)O[C@@H]4COP(=O)(O)O[C@@H]2[C@@H]3O)c(=O)[nH]1 [2′3-cGAMP, reference compound] | – | – | – | – | – | – | – | – | – | – | <300 | <1,000 pg/ml | <3,000 pg/ml | <10 pg/mL | <50 pg/mL | <10 pg/mL | <20 pg/mL | <50 pg/mL
9 | CCn1nc(C)cc1C(=O)Nc1nc2cc(C(N)=O)cnc2n1CCCCNC(=O)OCc1ccccc1 [Compound G, benzyl N-[4-[6-carbamoyl-2-[(2-ethyl-5-methyl-pyrazole-3-carbonyl)amino]imidazo[4,5-b]pyridin-3-yl]butyl]carbamate] | > 500 | > 500 | > 500 | > 500 | > 500 | > 500 | – | – | – | – | – | – | – | – | – | – | – | –
10 | CCn1nc(C)cc1C(=O)Nc1nc2cc(C(N)=O)sc2n1C/C=C/CNC(=O)OC(C)(C)C [Compound H, tert-butyl N-[(E)-4-[5-carbamoyl-2-[(2-ethyl-5-methyl-pyrazole-3-carbonyl)amino]thieno[2,3-d]imidazol-3-yl]but-2-enyl]carbamate] | > 500 | > 500 | > 500 | > 500 | > 500 | > 500 | – | – | – | – | – | – | – | – | – | – | – | –

Source: patent US20200031825A1, “HETEROAROMATIC-FUSED IMIDAZOLYL AMIDES, COMPOSITIONS AND USES THEREOF AS STING AGONISTS” (Trillium Therapeutics Inc., priority 2018, published 2020)
